Experimental data: patent US10858351B2, “Substituted tetrahydropyridine derivatives as IDO-1 inhibitors and uses thereof” (Alberta Research Chemicals Inc., priority 2017, dated 2020)
pIC50: −log10 of the molar value.

Assays:
Assay type in all cases: cell-based
Human IDO-1 [1] = target: T1, Human IDO-1 (Homo sapiens, UniProt P14902); assay: IDO Kynurenine Assay with Human IDO1/HEK293 cells (Basal L-Kynurenine readout); details: HEK Human IDO-1; for inhibition at 10 µM: HEK293, Primary SP, 10 μM compound, read-out: Basal_L-Kynurenine (IDO1 % inhib @ 10 μM); for pIC50: Primary CRC, read-out: Basal_L-Kynurenine IDO1 Rel IC50
Procedure: (§1) Compounds described in the Examples above were tested for inhibition of IDO activity with IDO Kynurenine Assay with Human ID01/HEK293 Cells.
(§2) Human ID01/HEK293 cells were seeded at 10,000 cells per 50 μL per well with RP Ml/phenol red free media containing 10% FBS in a 384-well black wall clear bottom tissue culture plate (Matrix Technologies LLC). 125 nL of certain concentration of compound was then added to each well using ECHO liquid handling systems. The cells were incubated for 20 hours in 37° C. incubator with 5% CO2.
The compound treatments were stopped by adding trichloroacetic acid (Sigma-Aldrich) to a final concentration at 0.2%. The cell plate was further incubated at 50° C. for 30 minute. The equal volume supernatant (20 μL) and 0.2% (w/v) Ehrlich reagent (4-dimethylaminobenzaldehyde, Sigma-Aldrich) in glacial acetic acid were mixed in a new clear bottom 384-well plate. This plate was then incubated at room temperature for 30 minute. The absorbance at 490 nm was measured on Envision plate reader.

Human IDO-1 [2] = target: T1, Human IDO-1; assay: HEK Human IDO-1 cells, Basal N-formyl-kynurenine readout; details: Primary CRC, read-out: Basal_N-formyl-kyn IDO1 Rel IC50
Procedure: as §1, §2

Human ID01/HEK293 cells = assay: HEK Human IDO-1 cells, Basal Viability; details: Primary CRC, HEK Human IDO-1 cell viability, read-out: Basal_Viability Rel IC50
Procedure: as §2

T1 sequence (P14902 whole entry): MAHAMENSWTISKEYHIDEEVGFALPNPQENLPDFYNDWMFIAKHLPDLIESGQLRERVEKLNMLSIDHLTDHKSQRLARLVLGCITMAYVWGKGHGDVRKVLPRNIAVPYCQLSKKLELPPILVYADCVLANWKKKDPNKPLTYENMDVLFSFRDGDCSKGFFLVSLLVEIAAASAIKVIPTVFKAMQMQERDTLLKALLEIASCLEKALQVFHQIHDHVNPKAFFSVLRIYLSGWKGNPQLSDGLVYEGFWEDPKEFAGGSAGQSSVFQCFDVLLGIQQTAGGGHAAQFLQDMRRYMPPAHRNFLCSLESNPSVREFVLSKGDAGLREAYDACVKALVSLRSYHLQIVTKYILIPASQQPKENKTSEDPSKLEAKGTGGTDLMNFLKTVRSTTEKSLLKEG

SMILES | inhibition at 10 µM (Human IDO-1 [1]) [%] | pIC50 (Human IDO-1 [1]) | pIC50 (Human IDO-1 [2]) | pIC50 (Human ID01/HEK293 cells)
CCNC(=O)Nc1cccc(CN2CC=C(c3cccc(N4CCOCC4)n3)CC2)c1 [Example 1, 1-Ethyl-3-[3-(6-morpholin-4-yl-3′,6′-dihydro-2′H-[2,4′]bipyridinyl-1′-ylmethyl)phenyl]urea] | > 90 | > 5.70 | > 5.70 | < 4.30
O=C(Nc1cccc(CN2CC=C(c3cccc(N4CCOCC4)n3)CC2)c1)NC1CCCCC1 [Example 2, 1-Cyclohexyl-3-[3-(6-morpholin-4-yl-3′,6′-dihydro-2′H-[2,4′]bipyridinyl-1′-ylmethyl)-phenyl]-urea] | > 90 | > 5.70 | > 5.70 | < 4.30
CCNC(=O)Nc1cccc(CN2CC=C(c3cccc(N4CCCCC4)n3)CC2)c1 [Example 4, 1-Ethyl-3-[3-(6-piperidine-1-yl-3′,6′-dihydro-2′H-[2,4′]bipyridinyl-1′-ylmethyl)-phenyl]-urea] | > 90 | > 5.70 | > 5.70 | < 4.30
O=C(Nc1cccc(CN2CC=C(c3cccc(N4CCCCC4)n3)CC2)c1)NC1CCCCC1 [Example 5, 1-Cyclohexyl-3-[3-(6-piperidine-1-yl-3′,6′-dihydro-2′H-[2,4′]bipyridinyl-1′-ylmethyl)-phenyl]-urea] | > 90 | > 5.70 | > 5.70 | < 4.30
O=C(Nc1cccc(CN2CC=C(c3cccc(N4CCCCC4)n3)CC2)c1)NC1CC1 [Example 6, 1-Cyclopropyl-3-[3-(6-piperidin-1-yl-3′,6′-dihydro-2′H-[2,4′]bipyridinyl-1′-ylmethyl)-phenyl]-urea] | > 90 | > 5.70 | > 5.70 | < 4.30
CCNC(=O)Nc1cccc(CN2CC=C(c3cccc(N4CCN(C)CC4)n3)CC2)c1 [Example 7, 1-Ethyl-3-{3-[6-(4-methyl-piperazin-1-yl)-3′,6′-dihydro-2′H-[2,4′]bipyridinyl-1′-ylmethyl]-phenyl}-urea] | < 90 | < 5.70 | < 5.70 | < 4.30
CN1CCN(c2cccc(C3=CCN(Cc4cccc(NC(=O)NC5CCCCC5)c4)CC3)n2)CC1 [Example 8, 1-Cyclohexyl-3-{3-[6-(4-methyl-piperazin-1-yl)-3′,6′-dihydro-2′H-[2,4′]bipyridinyl-1′-ylmethyl]-phenyl}-urea] | < 90 | < 5.70 | < 5.70 | < 4.30
CN1CCN(c2cccc(C3=CCN(Cc4cccc(NC(=O)NC5CC5)c4)CC3)n2)CC1 [Example 9, 1-Cyclopropyl-3-{3-[6-(4-methyl-piperazin-1-yl)-3′,6′-dihydro-2′H-[2,4′]bipyridinyl-1′-ylmethyl]-phenyl}-urea] | < 90 | < 5.70 | < 5.70 | < 4.30
